Measurements published in US7160880B1, “Short-acting benzodiazepines” (CeNeS Limited, priority 1999, dated 2007).
pKi: −log10 of the molar value. Read-outs that look alike come from different tables or passages of the source.

Assays:
[1] = target: benzodiazepine receptor (benzodiazepine site on the GABAA receptor complex); experiment: Benzodiazepine radioligand (3H-flunitrazepam) binding assay
male Wistar rats = experiment: Loss of the righting reflex (LRR) in rats; assay type: in vivo, rat; conditions: i.v. via tail vein, dose in the range of 10–100 mg/kg
Procedure: The intrinsic efficacy of a compound was assessed by its ability to cause loss of the righting reflex (LRR) in rats, an effect associated with benzodiazepine full agonism.
Method: Subjects for these studies were male Wistar rats, weighing approximately 250–350 grams. To assess loss of righting reflex (LRR), animals were placed in plastic restrainers and test compounds were administered i.v. via the tail vain. Subjects were immediately removed from the restrainer and the time to onset of loss of righting reflex was recorded. LRR was defined as the loss of an animal's ability to right itself when placed in a supine position. […] Compounds producing LRR were evaluated by three measures: 1) Time to onset of LRR (as described above) 2) Time to recover from LRR. An animal met this criteria when able to right itself three consecutive times after losing its righting reflex 3) Total recovery time. Total recovery was measured by the animal's ability to walk without ataxia as well as its ability to pull itself up three consecutive times when suspended from a horizontal wire. […] The therapeutically useful dosage range for administration to mammals is 0.01 to 5.0 mg/kg of body weight.

[2] = read-out: Benzodiazepine receptor binding Ki, 3H-flunitrazepam, brain membrane homogenates, 90 minutes at 4° C., tissue species of the tabulated values not stated

Row | SMILES | pKi [1, 2] | loss of righting reflex (LRR) (male Wistar rats) | pKi ([1]; compound used at 10 μM to define nonspecific binding)
1 | COC(=O)CCNC1N=C(c2ccccc2Cl)c2cc(Cl)ccc2NC1=O (stereo not drawn) [Example 1-27] | 7.30 to 9.00 | – | –
2 | COC(=O)CC[C@@H]1N=C(c2ccccn2)c2cc(Cl)ccc2-n2c(CO)cnc21 [Example 1c-12] | 6.00 to 7.00 | – | –
3 | CNC1=Nc2ccc(Br)cc2C(c2ccccc2F)=N[C@H]1CCC(=O)OC [Example 1b-10] | 7.30 to 9.00 | producing loss-of-righting | –
4 | COC(=O)CC[C@@H]1N=C(c2ccccc2F)c2cc(Cl)ccc2-n2cc(CO)nc21 [Example 1c-4] | 7.30 to 9.00 | – | –
5 | COC(=O)CC[C@@H]1N=C(c2ccccn2)c2cc(Cl)ccc2-n2cc(C)nc21 [Example 1c-10] | 7.00 to 7.29 | producing loss-of-righting | –
6 | COC(=O)CC[C@@H]1N=C(c2ccccc2F)c2cc(Cl)ccc2N=C1NCC(C)C [Example 1b-7] | < 6.00 | – | –
7 | COC(=O)CC[C@@H]1N=C(c2ccccc2F)c2cc(Cl)ccc2N=C1NCc1ccncc1 [Example 1b-5] | < 6.00 | – | –
8 | CCOC(=O)CC[C@@H]1N=C(c2ccccn2)c2cc(Cl)ccc2NC1=O [Example 1-15] | 6.00 to 7.00 | – | –
9 | COC(=O)CC[C@@H]1N=C(c2ccccc2F)c2cc(Cl)ccc2-n2cc(C)nc21 [Example 1c-3] | 7.30 to 9.00 | producing loss-of-righting | –
10 | CCCCOC(=O)CC[C@@H]1N=C(c2ccccc2F)c2cc(Cl)ccc2NC1=O [Example 1-17] | 6.00 to 7.00 | producing loss-of-righting | –
11 | COC(=O)CC[C@@H]1N=C(c2ccccc2F)c2cc(Cl)ccc2N=C1NCCc1c[nH]cn1 [Example 1b-8] | 6.00 to 7.00 | – | –
12 | O=C(CC[C@@H]1N=C(c2ccccc2F)c2cc(Cl)ccc2NC1=O)OCc1ccccc1 [Example 1-5] | 7.30 to 9.00 | producing loss-of-righting | –
13 | COC(=O)CC[C@@H]1N=C(c2ccccc2Cl)c2cc(Cl)ccc2-n2c(C)nnc21 [Example 1c-14] | 7.30 to 9.00 | producing loss-of-righting | –
14 | COC(=O)CC[C@@H]1N=C(c2ccccc2F)c2cc(Cl)ccc2-n2ccnc21 [Example 1c-1] | 7.30 to 9.00 | producing loss-of-righting | –
15 | COC(=O)CC[C@H]1N=C(c2ccccc2F)c2cc(Cl)ccc2NC1=O [Example 1-4] | 6.00 to 7.00 | producing loss-of-righting | –
16 | CNC1=Nc2ccc(Cl)cc2C(c2ccccc2F)=N[C@H]1CCC(=O)OC [Example 1b-1] | 7.00 to 7.29 | producing loss-of-righting | –
17 | CCN(CC)CCN1C(=O)[C@H](CCC(=O)OCc2ccccc2)N=C(c2ccccc2F)c2cc(Cl)ccc21 [Example 1-25] | 7.00 to 7.29 | – | –
18 | COC(=O)CC[C@@H]1N=C(c2ccccc2F)c2cc(Cl)ccc2N=C1NCCO [Example 1b-9] | 6.00 to 7.00 | – | –
19 | COC(=O)CC[C@@H]1N=C(c2ccccc2F)c2cc(Cl)ccc2NC1=O [Example 1-1, Methyl 3-[(3S)-7-chloro-5-(2-fluorophenyl)-2-oxo-2,3-dihydro-1H-1,4-benzodiazepin-3-yl]propanoate] | 7.30 to 9.00 | producing loss-of-righting | –
20 | COC(=O)CC[C@@H]1N=C(c2ccccn2)c2cc(Cl)ccc2-n2cc(CO)nc21 [Example 1c-11] | 6.00 to 7.00 | – | –
21 | COC(=O)CCC[C@@H]1N=C(c2ccccc2F)c2cc(Cl)ccc2NC1=O [Example 1-8] | 7.30 to 9.00 | – | –
22 | COC(=O)CC[C@@H]1N=C(c2ccccc2F)c2cc(Cl)ccc2-n2c(C)cnc21 [Example 1c-2] | 7.30 to 9.00 | producing loss-of-righting | –
23 | COC(=O)CC[C@@H]1N=C(c2ccccc2F)c2cc(Cl)ccc2N=C1NCc1ccccc1 [Example 1b-4] | 6.00 to 7.00 | – | –
24 | COC(=O)CCC[C@@H]1N=C(c2ccccc2F)c2cc([N+](=O)[O-])ccc2NC1=O [Example 1-13] | 7.30 to 9.00 | – | –
25 | COC(=O)CC[C@@H]1N=C(c2ccccc2F)c2cc(Br)ccc2NC1=O [Example 1-3] | 7.30 to 9.00 | producing loss-of-righting | –
26 | CC(C)COC(=O)CC[C@@H]1N=C(c2ccccn2)c2cc(Cl)ccc2NC1=O [Example 1-19] | 6.00 to 7.00 | – | –
27 | COC(=O)CC[C@@H]1N=C(c2ccccc2F)c2cc(Cl)ccc2N=C1NCCc1ccncc1 [Example 1b-6] | 6.00 to 7.00 | – | –
28 | COC(=O)CC[C@@H]1N=C(c2ccccc2F)c2cc(Cl)ccc2-n2c(CO)cnc21 [Example 1c-5] | 7.30 to 9.00 | – | –

Row | SMILES | pKi [1, 2] | loss of righting reflex (LRR) (male Wistar rats) | pKi ([1]; compound used at 10 μM to define nonspecific binding)
29 | COC(=O)CC[C@@H]1N=C(c2ccccc2F)c2cc(Cl)ccc2NC1=O [Example 1-2] | 7.00 to 7.29 | – | –
30 | COC(=O)CC[C@@H]1N=C(c2ccccc2F)c2cc(Cl)ccc2-n2cc(COC(C)(C)C)nc21 [Example 1c-19] | 7.30 to 9.00 | – | –
31 | COC(=O)CC[C@@H]1N=C(c2ccccn2)c2cc(Cl)ccc2-n2ccnc21 [Example 1c-6] | 7.00 to 7.29 | producing loss-of-righting | –
32 | COC(=O)CC[C@@H]1N=C(c2ccccc2F)c2cc(Cl)ccc2-n2cncc21 [Example 1c-17] | 6.00 to 7.00 | producing loss-of-righting | –
33 | O=C(CC[C@@H]1N=C(c2ccccn2)c2cc(Cl)ccc2NC1=O)OCc1ccccc1 [Example 1-9] | 6.00 to 7.00 | producing loss-of-righting | –
34 | COC(=O)CC[C@@H]1N=C(c2ccccn2)c2cc(Cl)ccc2-n2c1nc(C)c2C [Example 1c-13] | 6.00 to 7.00 | – | –
35 | COC(=O)CC[C@H]1C(=O)Nc2ccc(Cl)cc2C(c2ccccc2F)=[N+]1[O-] [Example 1-31] | 7.00 to 7.29 | – | –
36 | CCNC1=Nc2ccc(Cl)cc2C(c2ccccc2F)=N[C@H]1CCC(=O)OC [Example 1b-3] | 6.00 to 7.00 | – | –
37 | COC(=O)CC[C@@H]1N=C(c2ccccn2)c2cc(Cl)ccc2-n2c(C)cnc21 [Example 1c-7] | 7.00 to 7.29 | producing loss-of-righting | –
38 | COC(=O)CC[C@@H]1N=C(c2ccccc2F)c2cc(Cl)ccc2-n2c(C)nnc21 [Example 1c-15] | 7.30 to 9.00 | producing loss-of-righting | –
39 | CN1C(=O)[C@H](CC(=O)OCc2ccccc2)N=C(c2ccccc2F)c2cc(Cl)ccc21 [Example 1-24] | 7.00 to 7.29 | – | –
40 | COC(=O)CC[C@@H]1N=C(c2ccccc2F)c2cc(Cl)ccc2-n2c1cnc2C (racemic) [Example 1c-18] | 7.30 to 9.00 | producing loss-of-righting | –
41 | CCCCOC(=O)CC[C@@H]1N=C(c2ccccn2)c2cc(Cl)ccc2NC1=O [Example 1-18] | 6.00 to 7.00 | – | –
42 | COC(=O)CC[C@@H]1N=C(c2ccccn2)c2cc(Br)ccc2NC1=O [Example 1-10] | 7.00 to 7.29 | – | –
43 | COC(=O)CC[C@@H]1N=C(c2ccccn2)c2cc(Cl)ccc2NC1=O [Example 1-11] | 6.00 to 7.00 | producing loss-of-righting | –
44 | O=C(CC[C@@H]1N=C(c2ccccc2F)c2cc(Cl)ccc2NC1=O)OCc1ccccc1 [Example 1-6] | 6.00 to 7.00 | producing loss-of-righting | –
45 | COC(=O)CNC1N=C(c2ccccc2Cl)c2cc(Cl)ccc2NC1=O (stereo not drawn) [Example 1-26] | 7.00 to 7.29 | – | –
46 | COC(=O)CC[C@@H]1N=C(c2ccccn2)c2cc(Br)ccc2-n2cc(C)nc21 [Example 1c-9] | 7.30 to 9.00 | – | –
47 | COC(=O)CC[C@@H]1N=C(c2ccccc2Cl)c2cc(Cl)ccc2NC1=O [Example 1-7] | 7.30 to 9.00 | producing loss-of-righting | –
48 | CN1C(=O)CN=C(c2ccccc2Cl)c2cc(Cl)ccc21 [2′-chlorodiazepam, reference compound] | – | – | 9.30
49 | CCOC(=O)C[C@@H]1N=C(c2ccccc2F)c2cc(Cl)ccc2NC1=O [Example 1-20] | 7.30 to 9.00 | – | –
50 | CC(C)OC(=O)CC[C@@H]1N=C(c2ccccc2F)c2cc(Cl)ccc2NC1=O [Example 1-21] | 7.30 to 9.00 | – | –
51 | COC(=O)CC[C@@H]1N=C(c2ccccn2)c2cc(Br)ccc2-n2c(C)cnc21 [Example 1c-8, Methyl 3-[(4S)-8-bromo-1-methyl-6-(2-pyridinyl)-4H-imidazo[1,2-a][1,4]benzodiazepin-4-yl]propanoate] | 7.30 to 9.00 | producing loss-of-righting | –
52 | CCN(CC)CCN1C(=O)[C@H](CCC(=O)OC)N=C(c2ccccc2F)c2cc(Cl)ccc21 [Example 1-22] | 6.00 to 7.00 | – | –
53 | Cc1nnc2n1-c1ccc(Cl)cc1C(c1ccccc1F)=N[C@H]2CCC(=O)OCC(C)C [Example 1c-16] | 7.30 to 9.00 | – | –
54 | COC(=O)CC[C@@H]1N=C(c2ccccc2F)c2cc(Cl)ccc2N(C)C1=O [Example 1-23] | 7.30 to 9.00 | producing loss-of-righting | –
55 | CCCOC(=O)CC[C@@H]1N=C(c2ccccn2)c2cc(Cl)ccc2NC1=O [Example 1-14] | 6.00 to 7.00 | – | –
